Results: patent publication US5773573A, “HIV peptides” (priority 1994, dated 1998)
Residues, ends and D or L forms follow the SMILES beside them.

Assay: White cell and T cell subset counts (CD4, CD8, NK) in HIV infected patient given HEP1
Assay type: in vivo, human
Details: patient three, oral HEP1 10 mg daily day 2-22
Protocol: The objective of this study was to determine in an HIV infected patient if the induction of immunological tolerance to HEP1 could reduce immune activation and HIV infection. The design of the first clinical experiment was to orally administer HEP1 to the patient in daily 10 mg doses (the lower end of the preferred dose range). This was then followed approximately three months later with a subcutaneous administration of HEP1 at a higher dose of 140 mg. To assess the therapeutic benefit of HEP1, the following disease progression markers were measured by taking blood samples before, during and after each trial and determining: HIV levels by a p24 antigen assay, HIV infectivity by a cellular TCID assay and immune activation by quantitating levels of various lymphocytes.
T cell subsets were measured by adding a whole blood sample to a 4.5 ml tube containing EDTA and staining with monoclonal antibodies to CD3, CD4 and CD8. The percentage of T cells in Peripheral Blood Lymphocytes were determined by flow-cytometric procedures. The numbers of CD4 and CD8 T cells were determined by obtaining total and differential white-cell counts and multiplying by the appropriate factor obtained on flow cytometry.
The following markers of HIV disease progression were assayed: p24Ag (the concentration of HIV p24 protein in picogram/ml in the blood), TCID (the infectivity of the HIV in the cells of blood sample measured by an in vitro cell culture assay in which a serial dilution of the sample was mixed with activated uninfected PBMC and the level of HIV infection determined by p24Ag assay), total white count (immune activation measured by the number of white cells per mm^3), CD4 (the number of CD4 positive cells per mm^3), CD8 (the number of CD8 positive cells per mm^3), NK (the number of Natural Killer cells per mm^3), Lymphocytes (the number of cells per mm^3), Monocytes (the number of cells per mm^3), and Granulocytes (the number of cells per mm^3). Normalised data was calculated by dividing each data point by the value of its data series on day 1 of the trail and multiplying by 100.

CC(C)[C@H](NC(=O)[C@@H](NC(=O)[C@H](CCC(=O)O)NC(=O)[C@H](CCCNC(=N)N)NC(=O)[C@H](CCCNC(=N)N)NC(=O)[C@H](CCCCN)NC(=O)[C@H](CCCCN)NC(=O)[C@H](CCC(=O)O)NC(=O)[C@@H](N)[C@@H](C)O)[C@@H](C)O)C(=O)N[C@@H](CCC(=O)O)C(=O)N[C@@H](CCCNC(=N)N)C(=O)N[C@@H](CCC(=O)O)C(=O)N[C@@H](CCCCN)C(=O)N[C@@H](CCC(=O)O)C(=O)O [HEP1, NH2 ThrGluLysLysArgArgGluThrValGluArgGluLysGluCOOH] (H-TEKKRRETVEREKE-OH)
% Granulocytes (day 1, before first dose): 76.1% | % Granulocytes, normalised data (day 1 = 100) (day 1, before first dose): 100 | % Lymphocytes (day 1, before first dose): 17.8% | % Lymphocytes, normalised data (day 1 = 100) (day 1, before first dose): 100 | % Monocytes (day 1, before first dose): 6.1% | % Monocytes, normalised data (day 1 = 100) (day 1, before first dose): 100 | CD4 (day 1, before first dose): 80 cells per mm^3 | CD4, normalised data (day 1 = 100) (day 1, before first dose): 100 | CD8 (day 1, before first dose): 900 cells per mm^3 | CD8, normalised data (day 1 = 100) (day 1, before first dose): 100 | Granulocytes (day 1, before first dose): 6230 cells per mm^3 | Lymphocytes (day 1, before first dose): 1480 cells per mm^3 | Lymphocytes, normalised data (day 1 = 100) (day 1, before first dose): 100 | Monocytes (day 1, before first dose): 570 cells per mm^3 | Monocytes, normalised data (day 1 = 100) (day 1, before first dose): 100 | NK (day 1, before first dose): 30 cells per mm^3 | NK, normalised data (day 1 = 100) (day 1, before first dose): 100 | White count (day 1, before first dose): 8200 cells per mm^3 | White count, normalised data (day 1 = 100) (day 1, before first dose): 100 | % Granulocytes (day 7, during treatment): 81.4% | % Granulocytes, normalised data (day 1 = 100) (day 7, during treatment): 107 | % Lymphocytes (day 7, during treatment): 15.5% | % Lymphocytes, normalised data (day 1 = 100) (day 7, during treatment): 87 | % Monocytes (day 7, during treatment): 3.1% | % Monocytes, normalised data (day 1 = 100) (day 7, during treatment): 51 | CD4 (day 7, during treatment): 80 cells per mm^3 | CD4, normalised data (day 1 = 100) (day 7, during treatment): 100 | CD8 (day 7, during treatment): 850 cells per mm^3 | CD8, normalised data (day 1 = 100) (day 7, during treatment): 94 | Granulocytes (day 7, during treatment): 6560 cells per mm^3 | Granulocytes, normalised data (day 1 = 100) (day 7, during treatment): 105 | Lymphocytes (day 7, during treatment): 1150 cells per mm^3 | Lymphocytes, normalised data (day 1 = 100) (day 7, during treatment): 78 | Monocytes (day 7, during treatment): 490 cells per mm^3 | Monocytes, normalised data (day 1 = 100) (day 7, during treatment): 86 | NK (day 7, during treatment): 30 cells per mm^3 | NK, normalised data (day 1 = 100) (day 7, during treatment): 100 | White count (day 7, during treatment): 8200 cells per mm^3 | White count, normalised data (day 1 = 100) (day 7, during treatment): 100 | % Granulocytes (day 14, during treatment): 76.8% | % Granulocytes, normalised data (day 1 = 100) (day 14, during treatment): 101 | % Lymphocytes (day 14, during treatment): 16.8% | % Lymphocytes, normalised data (day 1 = 100) (day 14, during treatment): 94 | % Monocytes (day 14, during treatment): 6.4% | % Monocytes, normalised data (day 1 = 100) (day 14, during treatment): 105 | CD4 (day 14, during treatment): 90 cells per mm^3 | CD4, normalised data (day 1 = 100) (day 14, during treatment): 113 | CD8 (day 14, during treatment): 900 cells per mm^3 | CD8, normalised data (day 1 = 100) (day 14, during treatment): 100 | Granulocytes (day 14, during treatment): 5620 cells per mm^3 | Granulocytes, normalised data (day 1 = 100) (day 14, during treatment): 90 | Lymphocytes (day 14, during treatment): 1460 cells per mm^3 | Lymphocytes, normalised data (day 1 = 100) (day 14, during treatment): 99 | Monocytes (day 14, during treatment): 620 cells per mm^3 | Monocytes, normalised data (day 1 = 100) (day 14, during treatment): 109 | NK (day 14, during treatment): 40 cells per mm^3 | NK, normalised data (day 1 = 100) (day 14, during treatment): 133 | White count (day 14, during treatment): 7700 cells per mm^3 | White count, normalised data (day 1 = 100) (day 14, during treatment): 94 | % Granulocytes (day 21, during treatment): 76.2% | % Granulocytes, normalised data (day 1 = 100) (day 21, during treatment): 100 | % Lymphocytes (day 21, during treatment): 18.6% | % Lymphocytes, normalised data (day 1 = 100) (day 21, during treatment): 104 | % Monocytes (day 21, during treatment): 5.2% | % Monocytes, normalised data (day 1 = 100) (day 21, during treatment): 85 | CD4 (day 21, during treatment): 80 cells per mm^3 | CD4, normalised data (day 1 = 100) (day 21, during treatment): 100 | CD8 (day 21, during treatment): 910 cells per mm^3 | CD8, normalised data (day 1 = 100) (day 21, during treatment): 101 | Granulocytes (day 21, during treatment): 5100 cells per mm^3 | Granulocytes, normalised data (day 1 = 100) (day 21, during treatment): 82 | Lymphocytes (day 21, during treatment): 1160 cells per mm^3 | Lymphocytes, normalised data (day 1 = 100) (day 21, during treatment): 78 | Monocytes (day 21, during treatment): 540 cells per mm^3 | Monocytes, normalised data (day 1 = 100) (day 21, during treatment): 95 | NK (day 21, during treatment): 40 cells per mm^3 | NK, normalised data (day 1 = 100) (day 21, during treatment): 133 | White count (day 21, during treatment): 6800 cells per mm^3 | White count, normalised data (day 1 = 100) (day 21, during treatment): 83 | % Granulocytes (day 28, after treatment): 74.5% | % Granulocytes, normalised data (day 1 = 100) (day 28, after treatment): 98 | % Lymphocytes (day 28, after treatment): 20% | % Lymphocytes, normalised data (day 1 = 100) (day 28, after treatment): 112 | % Monocytes (day 28, after treatment): 5.5% | % Monocytes, normalised data (day 1 = 100) (day 28, after treatment): 90 | CD4 (day 28, after treatment): 80 cells per mm^3 | CD4, normalised data (day 1 = 100) (day 28, after treatment): 100 | CD8 (day 28, after treatment): 730 cells per mm^3 | CD8, normalised data (day 1 = 100) (day 28, after treatment): 81 | Granulocytes (day 28, after treatment): 4020 cells per mm^3 | Granulocytes, normalised data (day 1 = 100) (day 28, after treatment): 65 | Lymphocytes (day 28, after treatment): 1050 cells per mm^3 | Lymphocytes, normalised data (day 1 = 100) (day 28, after treatment): 71 | Monocytes (day 28, after treatment): 440 cells per mm^3 | Monocytes, normalised data (day 1 = 100) (day 28, after treatment): 77 | NK (day 28, after treatment): 20 cells per mm^3 | NK, normalised data (day 1 = 100) (day 28, after treatment): 67 | White count (day 28, after treatment): 5500 cells per mm^3 | White count, normalised data (day 1 = 100) (day 28, after treatment): 67 | % Granulocytes (day-69, before treatment): 80.4% | % Granulocytes, normalised data (day 1 = 100) (day-69, before treatment): 106 | % Lymphocytes (day-69, before treatment): 15.4% | % Lymphocytes, normalised data (day 1 = 100) (day-69, before treatment): 87 | % Monocytes (day-69, before treatment): 4.2% | % Monocytes, normalised data (day 1 = 100) (day-69, before treatment): 96 | CD4 (day-69, before treatment): 90 cells per mm^3 | CD4, normalised data (day 1 = 100) (day-69, before treatment): 113 | CD8 (day-69, before treatment): 850 cells per mm^3 | CD8, normalised data (day 1 = 100) (day-69, before treatment): 94 | Granulocytes (day-69, before treatment): 6000 cells per mm^3 | Granulocytes, normalised data (day 1 = 100) (day-69, before treatment): 96 | Lymphocytes (day-69, before treatment): 1260 cells per mm^3 | Lymphocytes, normalised data (day 1 = 100) (day-69, before treatment): 85 | Monocytes (day-69, before treatment): 630 cells per mm^3 | Monocytes, normalised data (day 1 = 100) (day-69, before treatment): 111 | NK (day-69, before treatment): 20 cells per mm^3
